The values that follow come from article PMC6130680, “In vitro and in vivo antidiabetic potential of extracts and a furostanol saponin from Balanites aegyptiaca” (Pharmaceutical Biology, 2017).

For orientation: IC50 means the midpoint of a concentration-inhibition curve.

SMILES strings stand for the structures. Marks after values point to notes of the source that are not given here.

For series [1], the target named is α-Glucosidase enzyme from Brewer's yeast (EC 3.2.1.20). Kind of series: α-glucosidase (AG) inhibition assay. In kind it is biochemical. Particulars: mean ± standard error; substrate p-NPG; a dash for a tested fraction or compound means no AG activity. From the text:
(§1) The positive control, acarbose, was purchased from Bayer Pharmaceuticals Pty, Ltd. (Wayne, NJ). Human recombinant aldose reductase and DL-glyceraldehyde were purchased from Wako Pure Chemical Industries, Ltd. (Osaka, Japan). Gliclazide was obtained from Servier Canada (Laval, QC, Canada). Pre-coated silica plates 60 GF254 (20 × 20 cm) (Fluka, Steinheim, Germany) were used for thin-layer chromatography (TLC). Silica gel H (Merck, Darmstadt, Germany) and Lichroprep RP-18 silica gel (15–25 μm, Merck, Darmstadt, Germany) were used for vacuum liquid chromatography (VLC). Silica gel 60 (70–230 mesh ASTM, Fluka, Steinheim, Germany), Diaion HP 20 (Sigma-Aldrich, St. Louis, MO), and Sephadex LH-20 (Sigma-Aldrich, Steinheim, Sweden) were used for column chromatography (CC). Spots were visualized by spraying with p-anisaldehyde/sulphuric acid.
(§2) AG and AR inhibitory activities of MeEx, ClFr, BuFr, AqFr, as well as the Diaion fractions D1–D6 were tested. AG inhibition was measured spectrophotometrically in a 96-well microplate reader using a procedure reported by Li et al. ([2009]). Acarbose was used as a positive control. The AR (EC 1.1.1.21) inhibitory activity was measured according to the procedure previously reported (Nishimura et al. [1991]). The experiments were repeated three times, and the IC50 values were calculated and expressed as mean ± standard error.

Series [2] concerns the target T1, Human recombinant aldose reductase (Homo sapiens, UniProt P15121).
T1 construct: purchased Wako Pure Chemical Industries, Ltd. (Osaka, Japan)
The series is described as follows: aldose reductase (AR) inhibition assay. The format is biochemical. Particulars: mean ± standard error.
Source text: as §1, §2

The test system of series [3] is male mature albino mice. Kind of series: acute toxicity study in mice. The format is in vivo. The following applies: ascending oral doses up to 2000 mg/kg, observed closely for 24 h and daily for 14 days. Here is the method: (§3) Male albino rats (Wistar strain, 150–200 g) and male mature albino mice of 20–25 g were obtained from the animal house colony of the National Research Center, Egypt. The experimental protocol followed the Institutional Animal Ethical Committee of the National Research Centre. The acute toxicity studies were performed on the mice. […] The animals survived and then four additional animals were tested sequentially so that a total of five animals were tested.
The acute toxicities of the three samples (MeEx, BuFr and compound 3) were studied where the mice took ascending oral doses up to 2000 mg/kg of each sample. They were observed closely for 24 h and daily for 14 days, where no mortality was observed.

In series [4] the test system is STZ-induced diabetic rats. Kind of series: in vivo antidiabetic activity in STZ-induced diabetic rats. Set-up: species or system male albino rats (Wistar strain). Particulars: for Glucose level: fasting serum; for Glucose level / C-peptide / Cholesterol level / Insulin / Triglycerides: mean ± SEM, n = 6; for C-peptide / Cholesterol level / Insulin / Triglycerides: serum. As for the experimental part:
as §3
DM was induced by a single i.p. injection of STZ (55 mg/kg) in rats (Brosky and Logothetopoulos [1969]). Only rats with serum glucose levels of more than 250 mg/dL were selected and considered diabetic animals. MeEx, its active fraction (BuFr) and the active compound 3 were tested in the STZ-induced diabetic rats at two dose levels (100 and 200 mg/kg.b/wt) for 2 weeks. At the end of the 2-weeks treatment period, the animals were kept for an overnight fasting and the blood samples were collected from the retroorbital plexus and allowed to clot for 30 min at room temperature. These blood samples were centrifuged at 5000 rpm for 20 min and the serum was separated and stored at −80 °C until analysis was done. Serum samples were analyzed spectrophotometrically for serum glucose, triglycerides and cholesterol. Serum glucose was estimated by glucose oxidase–peroxidase method test agent kit (Stanbio, Boerne, TX) (Cheyne and Gilmore [1973]). Triglycerides were estimated by enzymatic methods by using a diagnostic kit (Biodiagnostic, Cairo, Egypt) (Fossati and Prencipe [1982]). Total cholesterol was estimated by enzymatic methods by using a diagnostic kit (Biodiagnostic, Cairo, Egypt) (Allain et al. [1974]). Serum insulin was estimated by a […] using the ALPCO Insulin (Rat) ELISA kit (Judzewitsch et al. [1982]). Serum C-peptide was measured with a rat insulin enzyme-linked immune absorbent assay kit (C-Peptide EIA Kit, Sigma-Aldrich, St. Louis, MO). Results were expressed as mean ± SEM for biochemical estimations. The quantitative data were analyzed by ANOVA followed by Tukey multiple comparison tests. The Kruskal–Wallis test was used for the quantitative analysis of the histopathology score values. Results were considered to be significant at p < 0.05.

The mark [5] stands for this setting: 200 mg/kg for 2 weeks, versus diabetic control.

On to `C[C@H]1O[C@H](O[C@H]2[C@H](O)[C@@H](O)[C@@H](O[C@H]3[C@H](O)[C@@H](O)C(O)O[C@@H]3CO)O[C@@H]2CO)[C@H](O)[C@@H](O)[C@@H]1N[C@H]1C=C(CO)[C@@H](O)[C@H](O)[C@H]1O` (stereo partly shown) [Acarbose, acarbose, reference compound], for which, in series [1], the “AG inhibition IC50” value is 24.00 ± 2.31 µg/mL.

Consider `CC[C@H](/C=C/C(C)C1CCC2C3CC=C4C[C@@H](O[C@@H]5O[C@H](CO)[C@@H](O)[C@H](O)[C@H]5O)CCC4(C)C3CCC12C)C(C)C` (stereo partly drawn) [Compound 1, stigmasterol-3-O-β-D-glucopyranoside], for which, in series [2], the “AR inhibition IC50” value is “inactive” and the 50% inhibitory concentration (IC50) was 49.7 µM.

Regarding `CC(O)C1C(O)CC2C3CC=C4CC(OC5OC(CO)C(O)C(O)C5O)CCC4(C)C3CCC21C` [Compound 2, pregn-5-ene-3β,16β,20(R)-triol 3-O-β-D-glucopyranoside], in series [2], the “AR inhibition IC50” value was “inactive” and the IC50 is 24.6 µM.

Regarding `COC1(CC[C@@H](C)CO[C@@H]2O[C@H](CO)[C@@H](O)[C@H](O)[C@H]2O)OC2C[C@H]3[C@@H]4CC=C5C[C@@H](O[C@@H]6O[C@H](CO)[C@@H](O[C@@H]7O[C@H](CO)[C@@H](O)[C@H](O)[C@H]7O)[C@H](O)[C@H]6O[C@@H]6O[C@@H](C)[C@H](O)[C@@H](O)[C@H]6O)CC[C@]5(C)[C@H]4CC[C@]3(C)C2[C@@H]1C` (stereo partly drawn) [Compound 3, 26-(O-β-D-glucopyranosyl)-22-O-methylfurost-5-ene-3β,26-diol-3-O-β-D-glucopyranosyl-(1 → 4)-[α-L-rhamnopyranosyl-(1 → 2)]-β-D-glucopyranoside], the “mortality (acute toxicity)” value in series [3] is reported as “no mortality”. In addition, in series [1], the “AG inhibition IC50” value stood at 03.12 ± 0.17 µg/mL. Also, in series [4] (100 mg/kg for 2 weeks), the Glucose level was 207.4 ± 18.33^a mg/dL, the C-peptide was 1.42 ± 0.07^a ng/mL, the Cholesterol level turned out to be 139.2 ± 10.30 mg/dL and the Insulin is 1.99 ± 0.04^a μIU/mL. In addition, the Triglycerides in series [4] (100 mg/kg for 2 weeks) is 112.2 ± 9.89 mg/dL. In series [4] (200 mg/kg for 2 weeks), the Glucose level is on record as 122.2 ± 18.22^b mg/dL, the C-peptide is on record as 2.04 ± 0.06^b ng/mL, the Cholesterol level is reported as 115.6 ± 7.12^b mg/dL and the Insulin is recorded as 3.17 ± 0.28^b μIU/mL. The Triglycerides in series [4] (200 mg/kg for 2 weeks) stood at 113.5 ± 7.73 mg/dL. In addition, in series [4] (setting [5]), the “increase in C-peptide level” value is given as 65%, the “reduction in fasting blood/plasma glucose level” value worked out at 51.39% and the “reduction in total cholesterol level” value is reported as 31.19%. The “reduction in total cholesterol level” value in series [4] (200 mg/kg for 2 weeks, versus diabetic control, listed as furostanol saponin 3) turned out to be 31.9%. Besides, the IC50 in series [2] is 0.964 µM.

For the compound `Cc1ccc(S(=O)(=O)NC(=O)NN2CC3CCCC3C2)cc1` (stereo not shown) [Gliclazide, reference compound], in series [4] (10 mg/kg (standard drug)), the Glucose level was 93.09 ± 5.80^b mg/dL, the C-peptide is 1.78 ± 0.11 ng/mL, the Cholesterol level was 125.3 ± 5.98^b mg/dL and the Insulin was 2.82 ± 0.18^a^,^b μIU/mL. In series [4] (10 mg/kg (standard drug)), the Triglycerides is 103.7 ± 9.73 mg/dL. Also, the “reduction in cholesterol level” value in series [4] (10 mg/kg (standard drug), versus diabetic control) was found to be 25.42%.
